The record followed here is patent US20060178374A1, “Aminoheteroaryl compounds as protein kinase inhibitors” (AGOURON PHARMACEUTICALS, INC., priority 2004, published 2006).

Each structure is given as a SMILES string.

Sequence of HGFR (c-Met) (P08581 974-1390): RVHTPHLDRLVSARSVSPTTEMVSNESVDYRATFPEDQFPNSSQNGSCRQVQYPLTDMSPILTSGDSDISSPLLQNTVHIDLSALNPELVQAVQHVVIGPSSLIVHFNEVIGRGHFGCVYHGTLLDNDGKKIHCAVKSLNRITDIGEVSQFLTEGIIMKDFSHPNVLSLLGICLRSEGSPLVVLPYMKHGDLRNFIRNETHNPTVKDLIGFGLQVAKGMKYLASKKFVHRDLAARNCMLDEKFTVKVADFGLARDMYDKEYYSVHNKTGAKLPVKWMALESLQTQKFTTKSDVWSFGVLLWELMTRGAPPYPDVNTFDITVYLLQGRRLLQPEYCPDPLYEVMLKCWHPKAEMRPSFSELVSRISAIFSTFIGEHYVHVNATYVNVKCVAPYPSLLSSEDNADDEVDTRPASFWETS

This assay addresses HGFR (c-Met) (Homo sapiens, UniProt P08581). Kind of assay: HGFR Continuous-Coupled Spectrophotometric Assay. As to conditions: HGFR enzyme 50 nM, Met-2 peptide substrate, 37° C. The class given is biochemical. The procedure, abridged: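 Human HGFR (50 nM final) phosphorylates the Met-2 activation-loop peptide, with ADP formation coupled through PK/LDH to NADH consumption, read as the A340 decrease over 10 min at 37 °C. Buffer was HEPES pH 7.5 with MgCl2, DTT, PEP and ATP.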
For the compound `CC(Oc1cc(C2=CCCC2)cnc1N)c1c(Cl)ccc(F)c1Cl` (stereo not drawn) [Example 110, 5-cyclopent-1-en-1-yl-3-[1-(2,6-dichloro-3-fluorophenyl)ethoxy]pyridin-2-amine], the Ki (commonly the dissociation constant of the complex between target and ligand, obtained from inhibition or displacement) worked out at 250 nM. This counts as sub-micromolar.
With `COc1cc(-c2cnc(N)c(OC(C)c3c(Cl)ccc(F)c3Cl)c2)ccc1OCCN1CCCC1` (stereo not drawn) [Example 111, 3-[1-(2,6-dichloro-3-fluorophenyl)ethoxy]-5-[3-methoxy-4-(2-pyrrolidin-1-ylethoxy)phenyl]pyridin-2-amine] the figure was 28 nM; with `CC(Oc1cc(-c2ccc(C(=O)N3CC(N)C3)cc2)cnc1N)c1c(Cl)ccc(F)c1Cl` (stereo not drawn) [Example 112, 5-{4-[(3-aminoazetidin-1-yl)carbonyl]phenyl}-3-[1-(2,6-dichloro-3-fluorophenyl)ethoxy]pyridin-2-amine], 18 nM; with `CC(Oc1cc(-c2cncnc2)cnc1N)c1c(Cl)ccc(F)c1Cl` (stereo not drawn) [Example 113, 3-[1-(2,6-dichloro-3-fluorophenyl)ethoxy]-5-pyrimidin-5-ylpyridin-2-amine], 360 nM.
`CC(Oc1cc(-c2cnc(OC3CCN(C(=O)OC(C)(C)C)CC3)nc2)cnc1N)c1c(Cl)ccc(F)c1Cl` (stereo not drawn) [Example 114, tert-butyl 4-[(5-{6-amino-5-[1-(2,6-dichloro-3-fluorophenyl)ethoxy]pyridin-3-yl}pyrimidin-2-yl)oxy]piperidine-1-carboxylate] yielded an inhibition constant Ki of 480 nM.
Next, `CC(Oc1cc(-c2cnc(Cl)nc2)cnc1N)c1c(Cl)ccc(F)c1Cl` (stereo not drawn) [Example 115, 5-(2-chloropyrimidin-5-yl)-3-[1-(2,6-dichloro-3-fluorophenyl)ethoxy]pyridin-2-amine]: 1500 nM; `CC(Oc1cc(-c2cnc(OC3CCNCC3)nc2)cnc1N)c1c(Cl)ccc(F)c1Cl` (stereo not drawn) [Example 116, 3-[1-(2,6-dichloro-3-fluorophenyl)ethoxy]-5-[2-(piperidin-4-yloxy)pyrimidin-5-yl]pyridin-2-amine]: 160 nM.
With `COc1ncc(-c2cnc(N)c(OC(C)c3c(Cl)ccc(OC)c3Cl)c2)cn1` (stereo not drawn) [Example 117, 3-[1-(2,6-dichloro-3-methoxyphenyl)ethoxy]-5-(2-methoxypyrimidin-5-yl)pyridin-2-amine] the figure was 160 nM; with `CC(Oc1cc(-c2ccc(C(=O)N(C)CCN(C)C)cc2)cnc1N)c1c(Cl)ccc(F)c1Cl` (stereo not drawn) [Example 118, 4-{6-amino-5-[1-(2,6-dichloro-3-fluorophenyl)ethoxy]pyridin-3-yl}-N-[2-(dimethylamino)ethyl]-N-methylbenzamide], 30 nM; with `C[C@H](Oc1cc(-c2ccc(C(=O)N3CCNCC3)cc2)cnc1N)c1c(Cl)ccc(F)c1Cl` [Example 119, 3-[(1S)-1-(2,6-dichloro-3-fluorophenyl)ethoxy]-5-[4-(piperazin-1-ylcarbonyl)phenyl] pyridin-2-amine], 1500 nM.
Next, `CC(Oc1cc(-c2cnc(N3CCN(C(=O)OC(C)(C)C)CC3)nc2)cnc1N)c1c(Cl)ccc(F)c1Cl` (stereo not drawn) [Example 120, tert-butyl 4-(5-{6-amino-5-[1-(2,6-dichloro-3-fluorophenyl)ethoxy]pyridin-3-yl}pyrimidin-2-yl)piperazine-1-carboxylate]: 1000 nM; `CC(Oc1cc(-c2cnc(N3CCNCC3)nc2)cnc1N)c1c(Cl)ccc(F)c1Cl` (stereo not drawn) [Example 121, 3-[1-(2,6-dichloro-3-fluorophenyl)ethoxy]-5-(2-piperazin-1-ylpyrimidin-5-yl)pyridin-2-amine]: 53 nM.
For the compound `CC(Oc1cc(-c2ccc(C(=O)N(C)CCCN(C)C)cc2)cnc1N)c1c(Cl)ccc(F)c1Cl` (stereo not drawn) [Example 122, 4-{6-amino-5-[1-(2,6-dichloro-3-fluorophenyl)ethoxy]pyridin-3-yl}-[3-(dimethylamino)propyl]-N-methylbenzamide], the Ki amounted to 25 nM.
With `CNCCN(C)C(=O)c1ccc(-c2cnc(N)c(OC(C)c3c(Cl)ccc(F)c3Cl)c2)cc1` (stereo not drawn) [Example 123, 4-{6-amino-5-[1-(2,6-dichloro-3-fluorophenyl)ethoxy]pyridin-3-yl}-N-methyl-N-[2-(methylamino)ethyl]benzamide] the figure was 60 nM.
With `CC(Oc1cc(-c2ccc(NCC3(O)CCNCC3)nc2)cnc1N)c1c(Cl)ccc(F)c1Cl` (stereo not drawn) [Example 124, 4-[({6′-amino-5′-[1-(2,6-dichloro-3-fluorophenyl)ethoxy]-3,3′-bipyridin-6-yl}amino)methyl]piperidin-4-ol] the figure was 20 nM.
With `CC(Oc1cc(-c2ccc(C3CCNCC3)cc2)cnc1N)c1c(Cl)ccc(F)c1Cl` (stereo not drawn) [Example 125, 3-[1-(2,6-dichloro-3-fluorophenyl)ethoxy]-5-(4-piperidin-4-ylphenyl)pyridin-2-amine] the figure was 25 nM.
For the compound `C[C@@H](Oc1cc(-c2ccc(C(=O)N(C)CCN(C)C)cc2)cnc1N)c1c(Cl)ccc(F)c1Cl` [Example 126, 4-{6-amino-5-[(1 R)-1-(2,6-dichloro-3-fluorophenyl)ethoxy]pyridin-3-yl}-N-[2-(dimethylamino)ethyl]-N-methylbenzamide], the Ki came to 10 nM.
Next, `C[C@@H](Oc1cc(-c2ccc(CO)cc2)cnc1N)c1c(Cl)ccc(F)c1Cl` [Example 127, (4-{6-amino-5-[(1R)-1-(2,6-dichloro-3-fluorophenyl)ethoxy]pyridin-3-yl}phenyl)methanol]: 51 nM.
Next, `C[C@@H](Oc1cc(-c2ccc(C(=O)N(C)CCCN(C)C)cc2)cnc1N)c1c(Cl)ccc(F)c1Cl` [Example 128, 4-{6-amino-5-[(1 R^15)-1-(2,6-dichloro-3-fluorophenyl)ethoxy]pyridin-3-yl}-N-[3-(dimethylamino)propyl]-N-methylbenzamide]: 10 nM; `C[C@@H](Oc1cc(-c2ccc(C(=O)N3CCN(C(=O)OC(C)(C)C)CC3)cc2)cnc1N)c1c(Cl)ccc(F)c1Cl` [Example 129, tert-butyl 4-(4-{6-amino-5-[(1 R)-1-(2,6-dichloro-3-fluorophenyl)ethoxy]pyridin-3-yl}benzoyl)piperazine-1-carboxylate]: 30 nM; `CC(Oc1cc(-c2ccc(CO)cc2)cnc1N)c1c(Cl)ccc(F)c1Cl` (stereo not drawn) [Example 130, (4-{6-amino-5-[1-(2,6-dichloro-3-fluorophenyl)ethoxy]pyridin-3-yl}phenyl)methanol]: 71 nM.
Take `COc1ccc(-c2cnc(N)c(OC(C)c3c(Cl)ccc(F)c3Cl)c2)cc1` (stereo not drawn) [Example 131, 3-[1-(2,6-dichloro-3-fluorophenyl)ethoxy]-5-(4-methoxyphenyl)pyridin-2-amine]: the affinity, expressed as Ki, was 133 nM.
`CC(Oc1cc(-c2cccc(CN)c2)cnc1N)c1c(Cl)ccc(F)c1Cl` (stereo not drawn) [Example 132, 5-[3-(aminomethyl)phenyl]-3-[1-(2,6-dichloro-3-fluorophenyl)ethoxy]pyridin-2-amine] gave an inhibition constant (Ki) of 69 nM.
Next, `CC(Oc1cc(-c2cccc(CC#N)c2)cnc1N)c1c(Cl)ccc(F)c1Cl` (stereo not drawn) [Example 133, (3-{6-amino-5-[1-(2,6-dichloro-3-fluorophenyl)ethoxy]pyridin-3-yl}phenyl)acetonitrile]: 41 nM; `CC(Oc1cc(-c2ccc(CC#N)cc2)cnc1N)c1c(Cl)ccc(F)c1Cl` (stereo not drawn) [Example 134, (4-{6-amino-5-[1-(2,6-dichloro-3-fluorophenyl)ethoxy]pyridin-3-yl}phenyl)acetonitrile]: 92 nM; `CC(Oc1cc(-c2ccc(C(=O)N(C)C)cc2)cnc1N)c1c(Cl)ccc(F)c1Cl` (stereo not drawn) [Example 135, 4-{6-amino-5-[1-(2,6-dichloro-3-fluorophenyl)ethoxy]pyridin-3-yl}-N,N-dimethylbenzamide]: 37 nM.
With `CC(Oc1cc(-c2ccc(O)cc2)cnc1N)c1c(Cl)ccc(F)c1Cl` (stereo not drawn) [Example 136, 4-{6-amino-5-[1-(2,6-dichloro-3-fluorophenyl)ethoxy]pyridin-3-yl}phenol] the figure was 73 nM; with `CC(Oc1cc(-c2ccc(NS(C)(=O)=O)cc2)cnc1N)c1c(Cl)ccc(F)c1Cl` (stereo not drawn) [Example 138, N-(4-{6-amino-5-[1-(2,6-dichloro-3-fluorophenyl)ethoxy]pyridin-3-yl}phenyl) methanesulfonamide], 32 nM.
Next, `CCS(=O)(=O)c1ccc(-c2cnc(N)c(OC(C)c3c(Cl)ccc(F)c3Cl)c2)cc1` (stereo not drawn) [Example 139, 3-[1-(2,6-dichloro-3-fluorophenyl)ethoxy]-5-(4-(ethylsulfonyl)phenyl]pyridin-2-amine]: 53 nM; `COc1cc(-c2cnc(N)c(OC(C)c3c(Cl)ccc(F)c3Cl)c2)ccc1O` (stereo not drawn) [Example 140, 4-{6-amino-5-[1-(2,6-dichloro-3-fluorophenyl)ethoxy]pyridin-3-yl}-2-methoxyphenol]: 39 nM.
For the compound `CC(Oc1cc(-c2cccc(NS(C)(=O)=O)c2)cnc1N)c1c(Cl)ccc(F)c1Cl` (stereo not drawn) [Example 141, N-(3-{6-amino-5-[1-(2,6-dichloro-3-fluorophenyl)ethoxy]pyridin-3-yl}phenyl) methanesulfonamide], the Ki amounted to 54 nM.
Next, `CC(Oc1cc(-c2cccc(C(=O)N(C)C)c2)cnc1N)c1c(Cl)ccc(F)c1Cl` (stereo not drawn) [Example 142]: 59 nM.
With `CC(Oc1cc(-c2ccc3[nH]cc(CN(C)C)c3c2)cnc1N)c1c(Cl)ccc(F)c1Cl` (stereo not drawn) [Example 143, 3-[1-(2,6-dichloro-3-fluorophenyl)ethoxy]-5-{3-[(dimethylamino)methyl]-1H-indol-5-yl}pyridin-2-amine], the Ki came out at 72 nM.
With `CC(Oc1cc(-c2ccc(C[C@H](N)C(=O)O)cc2)cnc1N)c1c(Cl)ccc(F)c1Cl` (stereo partly drawn) [Example 144, 4-{6-amino-5-[1-(2,6-dichloro-3-fluorophenyl)ethoxy]pyridin-3-yl}phenylalanine] the figure was 80 nM; with `CC(Oc1cc(-c2ccc(CO)nc2)cnc1N)c1c(Cl)ccc(F)c1Cl` (stereo not drawn) [Example 145, {6′-amino-5′-[1-(2,6-dichloro-3-fluorophenyl)ethoxy]-3,3′-bipyridin-6-yl}methanol], 69 nM.
Next, `CC(Oc1cc(-c2ccc(CO)cn2)cnc1N)c1c(Cl)ccc(F)c1Cl` (stereo not drawn) [Example 146, {6′-amino-5′-[1-(2,6-dichloro-3-fluorophenyl)ethoxy]-2,3′-bipyridin-5-yl}methanol]: 655 nM.
